According to US5244891A, “Injectable compositions of cefepime dihydrochloride hydrate” (priority 1992, dated 1993):
Entries after “also recorded” stand apart in the source; their conditions may differ. Where a name gives a salt, the structure may show the parent alone. Read-outs that look alike come from different tables or passages of the source. Blank lines part the entries; values can stand above or below the compound they belong to.

Experiments:
Solubility in water = format: physicochemical; conditions: for solubility in water (in words): for typical injectable compositions
[1] = Elevated temperature storage stability in dry form (potency loss or gain by HPLC); format: physicochemical; conditions: for degraded at 24 h: 1 day
Method: Elevated temperature stabilities were determined by storing the preparations in dry containers at temperatures and for time periods as denoted below and potency losses or gains were determined by HPLC. A % potency gain is indicated by a plus sign in front of a figure. A less than 10% potency loss over a 2 to 4 week period at 45-56 deg. C. is usually indicative of less than 10% potency loss over a 2-3 year period at room temperature.

[2] = dry powder, 45 deg. C. and above, even one week; 10080 min; cited from earlier work
various organisms = conditions: Aburaki et al. U.S. Pat. No. 4,406,899; listed as zwitterion form; cited from earlier work
[3] = Formation of insoluble particles on storage; format: physicochemical; conditions: storage at elevated temperatures
Text: The dihydrochloride dihydrate described in Example XIII can be easily dried to give the same dihydrochloride monohydrate described in Examples XI and XII. […] Accordingly, the monohydrate carrying up to about 1% by weight of adventitious water is the preferred form (total water content ca. 2.5-4.1%).

[4] = Weight loss on drying of the hydrate; format: physicochemical; conditions: 57° C., 0.001 mm Hg over P2 O5, 5 days; or 45° C., 10 mm Hg, 2 days
Text: The foregoing procedures of Examples XI and XII routinely produce monohydrate having a water content in the range of 2.46% to 3.70% with an average value of 3.31%. The value calculated from the stoichiometric formula is 3.15%.

[5] = 45 Deg. C., 1 week, dry container, + = potency gain, 10080 min
[6] = 45 Deg. C., 4 weeks, dry container, + = potency gain, 40320 min
[7] = 56 Deg. C., 1 week, dry container, + = potency gain, 10080 min
[8] = 56 Deg. C., 2 weeks, dry container, + = potency gain, 20160 min
[9] = dry solid, 45 Deg. C., 2 weeks, dry container, + = potency gain, read-out: PERCENT LOSS (potency)
[10] = dry solid, 100 Deg. C., dry container, + = potency gain, read-out: PERCENT LOSS (potency)
[11] = listed as di-nitric acid addition salt
[12] = 45 Deg. C., 2 weeks, dry container, + = potency gain, 20160 min
[13] = 45 Deg. C., 6 weeks, dry container, + = potency gain, 60480 min
[14] = listed as sulfuric acid addition salt, sulfate salt

Compound: CO/N=C(\C(=O)NC1C(=O)N2C(C(=O)[O-])=C(C[N+]3(C)CCCC3)CSC12)c1csc(N)n1 (stereo not drawn) [(H3 PO4)2 Salt, crystalline diphosphate salt of 7-[α-(2-aminothiazol-4-yl)-α-(Z)-methoxyiminoacetamido]-3-[(1-methyl-1-pyrrolidinio)methyl]-3-cephem-4-carboxylate]
- solubility in water (Solubility in water; listed as di-orthophosphoric acid addition salt): greater than 200 mg/ml
- PERCENT LOSS (potency) [1, 5]: 0%
- PERCENT LOSS (potency) [1, 6]: 1.0%
- PERCENT LOSS (potency) [1, 7]: 2.7%
- PERCENT LOSS (potency) [1, 8]: 5.0%
- degraded at 336 h [1, 9]: 3%

Compound: CO/N=C(\C(=O)NC1C(=O)N2C(C(=O)[O-])=C(C[N+]3(C)CCCC3)CSC12)c1csc(N)n1 (centres unmarked) [(HCl)2 Salt]
- solubility in water (Solubility in water; listed as di-hydrochloric acid addition salt): greater than 200 mg/ml
- PERCENT LOSS (potency) [1, 5]: 0%
- PERCENT LOSS (potency) [1, 6]: 7.4%
- PERCENT LOSS (potency) [1, 7]: 0%
- degraded at 672 h ([1]; dry solid, 56° C., 4 weeks, read-out: potency loss on storage): 7.2%
- degraded at 24 h [1, 10]: 12.4%

Compound: CO/N=C(\C(=O)NC1C(=O)N2C(C(=O)[O-])=C(C[N+]3(C)CCCC3)CS[C@H]12)c1csc(N)n1 (stereo partly drawn) [H2 SO4 Salt, 7-[α-(2-aminothiazol-4-yl)-α-(Z)-methoxyiminoacetamido]-3-[(1-methyl-1-pyrrolidinio)methyl]-3-cephem-4-carboxylate sulfate salt]
- solubility compared to the zwitterion form (Solubility in water): limited solubility
- solubility in water (in words) (Solubility in water; [14]): reduced solubilities which are insufficient for typical injectable compositions; also recorded: not sufficiently soluble to form compositions of normal concentration for administration
- solubility in water (Solubility in water; listed as crystalline sulfuric acid addition salt, sulfate salt): 25 mg/mL
- solubility in water (Solubility in water; [14]): about 25 mg/ml
- PERCENT LOSS (potency) ([1]; 45 Deg. C., 1 week, dry container, + = potency gain, 10080 min, sulfate salt, 10080 min): 2.4 to +5%
- PERCENT LOSS (potency) ([1]; 45 Deg. C., 2 weeks, dry container, + = potency gain, 20160 min, sulfate salt, 20160 min): 3%
- PERCENT LOSS (potency) ([1]; 45 Deg. C., 4 weeks, dry container, + = potency gain, 40320 min, sulfate salt, 40320 min): +5%
- PERCENT LOSS (potency) ([1]; 45 Deg. C., 6 weeks, dry container, + = potency gain, 60480 min, sulfate salt, 60480 min): 1.4%
- PERCENT LOSS (potency) ([1]; 56 Deg. C., 1 week, dry container, + = potency gain, 10080 min, sulfate salt, 10080 min): 5 to +6%
- PERCENT LOSS (potency) ([1]; 56 Deg. C., 2 weeks, dry container, + = potency gain, 20160 min, sulfate salt, 20160 min): +3%
- PERCENT LOSS (potency) ([1]; 56 Deg. C., 4 weeks, dry container, + = potency gain, 40320 min, sulfate salt, 40320 min): 0 to +6%
- degraded at 730 h ([1]; dry solid, 45-56 deg. C., one month): < 10%

Compound: CO/N=C(\C(=O)NC1C(=O)N2C(C(=O)[O-])=C(C[N+]3(C)CCCC3)CS[C@H]12)c1csc(N)n1 (stereo partly drawn) [Zwitterion, 7-[α-(2-aminothiazol-4-yl)-α-(Z)-methoxyiminoacetamido]-3-[(1-methyl-1-pyrrolidinio)methyl]-3-cephem-4-carboxylate, reference compound]
- loss of activity on storage [2]: ≥ 30%
- spectrum of activity (various organisms): broader spectrum activity than ceftazidime and cefotaxime; also recorded: broad spectrum utility against various organisms
- degraded at 168 h ([1]; dry solid, 45 Deg. C., 1 week, dry container, + = potency gain, read-out: PERCENT LOSS (potency)): 37%
- degraded at 336 h [1, 9]: 51%
- degraded at 672 h ([1]; dry solid, 45 Deg. C., 4 weeks, dry container, + = potency gain, read-out: PERCENT LOSS (potency)): 71%
- degraded at 168 h ([1]; dry solid, 56 Deg. C., 1 week, dry container, + = potency gain, read-out: PERCENT LOSS (potency)): 57%
- degraded at 24 h [1, 10]: 100%

Compound: CO/N=C(\C(=O)NC1C(=O)N2C(C(=O)[O-])=C(C[N+]3(C)CCCC3)CSC12)c1csc(N)n1 (stereo not drawn) [dihydrate, dihydrate of 7-[α-(2-aminothiazol-4-yl)-α-(Z)-methoxyiminoacetamido]-3-[(1-methyl-1-pyrrolidinio)methyl]-3-cephem-4-carboxylate dihydrochloride]
- formation of insoluble particles [3]: formation of trace amounts of insoluble particles was observed

Continued, in another order:

- solubility in water (Solubility in water; [11]): about 60 mg/ml
- PERCENT LOSS (potency) [1, 5]: 8.8%
- PERCENT LOSS (potency) [1, 12]: 3.4%
- PERCENT LOSS (potency) [1, 6]: 0.68%
- PERCENT LOSS (potency) [1, 13]: 10.3%
- PERCENT LOSS (potency) [1, 7]: 3.7%
- PERCENT LOSS (potency) [1, 8]: 2.4%
Compound: CO/N=C(\C(=O)NC1C(=O)N2C(C(=O)[O-])=C(C[N+]3(C)CCCC3)CSC12)c1csc(N)n1 (centres unmarked) [(HNO3)2 Salt]
- solubility in water (in words) (Solubility in water; [11]): reduced solubilities which are insufficient for typical injectable compositions; also recorded: not sufficiently soluble to form compositions of normal concentration for administration

- solubility in water (Solubility in water; listed as mono-hydrochloric acid addition salt): greater than 200 mg/ml
- PERCENT LOSS (potency) [1, 5]: 4.8%
- PERCENT LOSS (potency) [1, 12]: 2.3%
- PERCENT LOSS (potency) [1, 6]: 6.0%
- PERCENT LOSS (potency) [1, 13]: 6.4%
- PERCENT LOSS (potency) [1, 7]: 6.4%
Compound: CO/N=C(\C(=O)NC1C(=O)N2C(C(=O)[O-])=C(C[N+]3(C)CCCC3)CSC12)c1csc(N)n1 (centres unmarked) [HCl Salt]

- solubility in water (Solubility in water; listed as sesqui-orthophosphoric acid addition salt): greater than 200 mg/ml
- Stability, % Loss ([1]; 1 month, 37° C., 43200 min): 2.5%
- Stability, % Loss ([1]; 1 week, 45° C., 10080 min): 0%
- Stability, % Loss ([1]; 4 weeks, 56° C., 40320 min): 0%
- Stability, % Loss ([1]; 3 days, 70° C.): 0%
- degraded at 168 h ([1]; dry solid, 1 week, 56° C., read-out: Stability, % Loss): 1%
- degraded at 336 h ([1]; dry solid, 2 weeks, 45° C., read-out: Stability, % Loss): 1.4%
- degraded at 336 h ([1]; dry solid, 2 weeks, 56° C., read-out: Stability, % Loss): 1.4%
- degraded at 672 h ([1]; dry solid, 4 weeks, 45° C., read-out: Stability, % Loss): 0.7%
- degraded at 1344 h ([1]; dry solid, 8 weeks, 45° C.): 1.6%
- degraded at 24 h ([1]; dry solid, 100° C., read-out: Stability, % Loss): 10.9%
- degraded at 168 h ([1]; dry solid, 7 days, 70° C., read-out: Stability, % Loss): 1.9%
Compound: CO/N=C(\C(=O)NC1C(=O)N2C(C(=O)[O-])=C(C[N+]3(C)CCCC3)CSC12)c1csc(N)n1 (stereo not drawn) [Sesquiphosphate Salt, crystalline sesquiphosphate salt of 7-[α-(2-aminothiazol-4-yl)-α-(Z)-methoxyiminoacetamido]-3-[(1-methyl-1-pyrrolidinio)methyl]-3-cephem-4-carboxylate]

- loss in weight on drying [4]: no loss in weight
- storage stability at elevated temperatures (chemical and biological potency) [1]: similar
- degraded at 504 h ([1]; dry solid, 56° C., 3 weeks): 0.6%
- remaining at 504 h ([1]; dry solid, 56° C., 3 weeks, total water content ca. 2.5-4.1%, read-out: retention of potency): ≥ 96%
Compound: CO/N=C(\C(=O)NC1C(=O)N2C(C(=O)[O-])=C(C[N+]3(C)CCCC3)CSC12)c1csc(N)n1 (stereo not drawn) [monohydrate, crystalline dihydrochloride monohydrate of 7-[α-(2-aminothiazol-4-yl)-α-(Z)-methoxyiminoacetamido]-3-[(1-methyl-1-pyrrolidinio)methyl]-3-cephem-4-carboxylate]
